Marks after values point to notes of the source that are not given here.

One assay has as its system metabotropic glutamate receptors. In words: Displacement of 1S,3R-ACPD-sensitive [3H]glutamate binding to rat brain cell membranes. The following applies: crude membranes of rat forebrain; 10 µM compound. The procedure:
The binding of [^3H]glutamate was conducted with crude membranes of rat forebrain as described by Schoepp and True. Schoepp and True, Neuroscience Lett., 145, 100-104 (1992) and True and Schoepp, Society for Neuroscience Abstracts, 19, 470 (1993). IC50 values for the inhibition of [^3H]glutamate binding, or the percent displacement of [^3H]glutamate binding at a 10 µM concentration, of the formula I compound, is shown in Table II.
In the case of `NC(Cc1ccc(C(=O)O)cc1)(C(=O)O)C1CC1C(=O)O` (stereo not drawn) [Example 42, 2SR- and 2RS-2-amino-2-(1SR,2SR-2-carboxycyclopropan-1-yl)-3-((4-carboxy)phenyl)propanoic acid], the “ACPD-Sensitive [^3H]Glutamate Binding % Displacement at 10 µM” value is given as “(39%)”.

For the molecule `NC(C(=O)O)(C1Cc2ccccc2C1)C1CC1C(=O)O` (stereo not drawn) [Example 43, 2SR- and 2RS-2-amino-2-(1SR,2SR-2-carboxycyclopropan-1-yl)-2-(indan-2-yl)ethanoic acid], the “ACPD-Sensitive [^3H]Glutamate Binding % Displacement at 10 µM” value is “(32%)”.

As for `NC(CCC1CCNCC1)(C(=O)O)C1CC1C(=O)O` (stereo not drawn) [Example 45, 2SR- and 2RS-2-amino-2-(1SR,2SR-2-carboxycyclopropan-1-yl)-2-(piperidin-4-yl)butanoic acid], the “ACPD-Sensitive [^3H]Glutamate Binding % Displacement at 10 µM” value is “(42%)”.

Turning to `N[C@@](CC(c1ccccc1)c1ccccc1)(C(=O)O)[C@@H]1C[C@H]1C(=O)O` [Example 65, 2R 2-amino-2-(1R,2R-2-carboxycyclopropan-1-yl)-4,4-diphenylbutanoic acid], the “ACPD-Sensitive [^3H]Glutamate Binding % Displacement at 10 µM” value is “(45%)”.

Take `N[C@](CC(c1ccccc1)c1ccccc1)(C(=O)O)[C@@H]1C[C@H]1C(=O)O` [Example 66, 2S-2-amino-2-(1R,2R-2-carboxycyclopropan-1-yl)-4,4-diphenylbutanoic acid]: the “ACPD-Sensitive [^3H]Glutamate Binding % Displacement at 10 µM” value is “(36%)”.

Staying with this assay, now noted: crude membranes of rat forebrain; 10 µM compound; 10 µM.
Regarding `Cc1cccc(CCC(N)(C(=O)O)C2CC2C(=O)O)c1` [Example 67, 2R-2-amino-2-(1S,2S-2-carboxycyclopropan-1-yl)-4-(3-methylphenyl)butanoic acid], the “ACPD-Sensitive [^3H]Glutamate Binding % Displacement at 10 µM” value is “(22%)^b”.

With `Cc1cccc(CCC(N)(C(=O)O)C2CC2C(=O)O)c1` (stereo not drawn) [Example 69, 2R-2-amino-2-(1R ,2R-2-carboxycyclopropan-1-yl)-4-(3-methylphenyl)butanoic acid], the “ACPD-Sensitive [^3H]Glutamate Binding % Displacement at 10 µM” value is recorded as “(13%)^d”.

The same assay, now with this note: crude membranes of rat forebrain; inhibition of [3H]glutamate binding.
As a reminder, the IC50 is the point on the concentration scale where inhibition reaches its midpoint. On to `NC(CC1CCCC1)(C(=O)O)C1CC1C(=O)O` (stereo not drawn) [Example 41, 2SR- and 2RS-2-amino-2-(1SR,2SR-2-carboxycyclopropan-1-yl)-3-cyclopentylpropanoic acid], for which the IC50 stood at 1400 nM.

`NC(CCC1CCCCC1)(C(=O)O)C1CC1C(=O)O` (stereo not drawn) [Example 44, 2SR- and 2RS-2-amino-2-(1SR,2SR-2-carboxycyclopropan-1-yl)-4-(cyclohexyl)butanoic acid] came in with a half-inhibitory concentration (IC50) of 380 nM. Compared with the last molecule, the IC50 is about 3.7-fold lower.

In turn, `NC(CC(c1ccc(Cl)cc1)c1ccc(Cl)cc1)(C(=O)O)C1CC1C(=O)O` (stereo not drawn) [Example 46, 2SR- and 2RS-2-amino-2-(1SR,2SR-2-carboxycyclopropan-1-yl)-4,4-di(4,4'-dichloro)phenylbutanoic acid] gave a half-maximal inhibitory concentration (IC50) of 77 nM.

For `NC(CCc1ccc(Cl)cc1Cl)(C(=O)O)C1CC1C(=O)O` (stereo not drawn) [Example 47, 2SR- and 2RS-2-amino-2-(1SR,2SR-2-carboxycyclopropan-1-yl)-4-(2,4-dichlorophenyl)butanoic acid], the half-inhibitory concentration (IC50) was 220 nM.

Turning to `NC(CCc1ccc(Cl)c(Cl)c1)(C(=O)O)C1CC1C(=O)O` (stereo not drawn) [Example 48, 2SR- and 2RS-2-amino-2-(1SR,2SR-2-carboxycyclopropan-1-yl)-4-(3,4-dichlorophenyl)butanoic acid], the half-inhibitory concentration (IC50) worked out at 38 nM. Against the preceding molecule, the IC50 is about 5.8-fold lower.

`N[C@@](CC(c1ccccc1)c1ccccc1)(C(=O)O)[C@H]1C[C@@H]1C(=O)O` [Example 63, 2R 2-amino-2-(1S,2S-2-carboxycyclopropan-1-yl)-4,4-diphenylbutanoic acid]: the half-maximal inhibitory concentration (IC50) was determined as 2000 nM.

`N[C@](CC(c1ccccc1)c1ccccc1)(C(=O)O)[C@H]1C[C@@H]1C(=O)O` [Example 64, 2S-2-amino-2-(1S,2S-2-carboxycyclopropan-1-yl)-4,4-diphenylbutanoic acid] yielded an IC50 of 35 ± 5 nM.

On to `Cc1cccc(CCC(N)(C(=O)O)C2CC2C(=O)O)c1` [Example 68, 2S-2-amino-2-(1S,2S-2-carboxycyclopropan-1-yl)-4-(3-methylphenyl)butanoic acid], for which the IC50 was determined as 12 ± 3 nM.

These data come from EP0771196B1, “EXCITATORY AMINO ACID RECEPTOR ANTAGONISTS” (ELI LILLY AND COMPANY, priority 1994, dated 1996).
